Experiment [1] concerns the target T1, human GPR40 (Homo sapiens, UniProt O14842).
T1 construct: expressed in transfected cells; host or cells: CHO cells stably transfected with GPR40 and Aequorin
Kind of experiment: Cell-based aequorin assay. The settings on record: CHO cells stably transfected with GPR40 and aequorin; 0.01% HSA. As for the experimental part:
Cell-based aequorin assays were employed to characterize the modulatory activity of compounds on the GPR40 signaling pathway. In an exemplary assay, CHO cells were stably transfected with both GPR40 and Aequorin (Euroscreen). Cells were detached from the tissue culture dish with 2 mL of trypsin (0.25% (w/v)). Trypsinization was halted with 28 mL of Hanks Buffered Salt Solution containing 20 mM Hepes (H/HBSS) and 0.01% fatty acid-free human serum albumin (HSA). Coelantrazine is added to 1 ug/mL, and the cells were incubated for 2 hours at room temperature. Compounds were dissolved in DMSO for preparation of 10 mM stock solutions. Compounds were diluted in H/HBSS containing 0.01% HSA. Serial dilutions of the test compounds were prepared to determine dose response.
Aequorin luminescence measurements were made using an EG&G Berthold 96-well luminometer, and the response was measured over a 20 second interval after cells and compounds were mixed. The maximum relative light units was plotted to determine dose response. The EC50 (effective concentration to reach 50% maximal response) was determined from the dose response plot.

Experiment [2] deals with T1, human GPR40. Kind of experiment: Inositol phosphate accumulation assay. The format is cell-based. The settings on record: A9 cell line stably transfected with GPR40; 1 hour at 37° C.; read-out: IP3 EC50. How it is done:
An A9 cell line stably transfected with GPR40 (A9_GPR40) was used in IP accumulation assays. A9_GPR40 cells were plated in 96-well plates containing 20,000 cells/well in DMEM containing 10% FBS. After the cells attached to the well surface, the media was replaced with inositol free DMEM containing 10% dialyzed FBS and 1 μCi, mL ^3H-inositol and incubated for 16 hours. Compounds were diluted in HBSS/10 mM LiCl containing a desired amount of HSA and added directly to cells. Following 1 hour incubation at 37° C., the media was replaced with 100 μL of 20 mM formic acid to quench the reaction. 50 μL of the extract was then added to 100 μL of SPA beads, incubated overnight, and measured on a TopCount the following day.

Some results are limits rather than exact numbers.

T1 sequence (O14842 whole entry): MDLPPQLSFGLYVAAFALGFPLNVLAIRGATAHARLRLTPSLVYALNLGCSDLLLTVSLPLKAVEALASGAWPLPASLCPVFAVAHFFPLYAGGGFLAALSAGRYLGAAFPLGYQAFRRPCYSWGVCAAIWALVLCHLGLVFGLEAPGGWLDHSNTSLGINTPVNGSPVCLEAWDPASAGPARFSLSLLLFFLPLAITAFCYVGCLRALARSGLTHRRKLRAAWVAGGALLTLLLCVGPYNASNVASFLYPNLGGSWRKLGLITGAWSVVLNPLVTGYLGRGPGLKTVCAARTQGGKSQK

On to `CC(C)COc1ccc(COc2ccc3c(c2)[C@]2(CCC3)C[C@H]2C(=O)O)cc1[C@@H]1CCCC1(C)C` (single isomer, unassigned) [Example 130], for which the EC50 on human GPR40 [1] was in the range of 1000 to 10000 nM; on human GPR40 [2] it was 100 to 1000 nM.
For `COCCOc1ccc(COc2ccc3c(c2)[C@]2(CCC3)C[C@H]2C(=O)O)cc1[C@@H]1CCCC1(C)C` (single isomer, unassigned) [Example 131], the 50% effective concentration (EC50) on human GPR40 [1] fell in the range of 1000 to 10000 nM; at human GPR40 [2] it was 100 to 1000 nM.
The like results for `COc1ccc(F)c(-c2cc(F)c(COc3ccc4c(c3)[C@]3(CCC4)C[C@H]3C(=O)O)cc2[C@H]2CCCC2(C)C)c1` (single isomer, unassigned) [Example 45] were, in that order, 100 to 1000 nM and below 10 nM.
`COc1ccc(F)c(-c2ccc(COc3ccc4c(c3)C3(CCC4)CCC3C(=O)O)cc2C(OC)C(C)(C)C)c1` (single isomer, unassigned) [Example 155]: the EC50 at human GPR40 [1] was 100 to 1000 nM; at human GPR40 [2] it was below 10 nM.
The matching figures for `COc1ccc(F)c(-c2ccc(COc3ccc4c(c3)[C@]3(CC4)CC[C@@H]3C(=O)O)cc2C2=CCCC2(C)C)c1` (single isomer, unassigned) [Example 151]: 100 to 1000 nM and 10 to 100 nM.
The like results for `COc1ccc(F)c(-c2ccc(COc3ccc4c(c3)[C@]3(CC4)C[C@H]3C(=O)O)cc2C2=CCCC2(C)C)c1` [Example 1] were, in that order, 100 to 1000 nM and below 10 nM.
The like results for `COc1cc(-c2ccc(COc3ccc4c(c3F)[C@]3(CC4)C[C@H]3C(=O)O)cc2[C@@H]2CCCC2(C)C)c(F)cn1` (single isomer, unassigned) [Example 32] were, in that order, 100 to 1000 nM and below 10 nM.
In the case of `COc1ccc(F)c(-c2ccc(COc3ccc4c(c3F)[C@]3(CC4)C[C@H]3C(=O)O)cc2[C@@H](OC)C(C)(C)C)c1` (single isomer, unassigned) [Example 31], the EC50 is 10 to 100 nM at human GPR40 [1] and below 10 nM on human GPR40 [2].
The like results for `COc1cc(-c2ccc(COc3ccc4c(c3)[C@]3(CCC4)C[C@H]3C(=O)O)cc2[C@@H]2CCCC2(C)C)c(F)cn1` [Example 48] were, in that order, 10 to 100 nM and below 10 nM.
The like results for `COc1ccc(F)c(-c2ccc(COc3ccc4c(c3)[C@]3(CCC4)C[C@H]3C(=O)O)cc2[C@@H](OC)C(C)(C)C)c1` (single isomer, unassigned) [Example 46] were, in that order, 10 to 100 nM and below 10 nM.
The like results for `COc1ccc(F)c(-c2cc(F)c(COc3ccc4c(c3F)[C@]3(CCC4)C[C@H]3C(=O)O)cc2[C@H]2CCCC2(C)C)c1` (single isomer, unassigned) [Example 56] were, in that order, 100 to 1000 nM and below 10 nM.
Turning to `COc1cc(-c2cc(F)c(COc3ccc4c(c3F)[C@]3(CCC4)C[C@H]3C(=O)O)cc2[C@H]2CCCC2(C)C)c(F)cn1` (single isomer, unassigned) [Example 57], the EC50 at human GPR40 [1] is 100 to 1000 nM; on human GPR40 [2], below 10 nM.
The like results for `COc1ccc(F)c(-c2ccc(COc3ccc4c(c3)[C@]3(CC4)C[C@H]3C(=O)O)cc2[C@@H]2CCCC2(C)C)c1` (single isomer, unassigned) [Example 9] were, in that order, 100 to 1000 nM and 10 to 100 nM.
With `COc1ccc(F)c(-c2ccc(COc3ccc4c(c3F)[C@]3(CCC4)C[C@H]3C(=O)O)cc2[C@H]2CCCC2(C)C)c1` (single isomer, unassigned) [Example 51], the half-maximal effective concentration (EC50) at human GPR40 [1] was 10 to 100 nM; on human GPR40 [2] it was below 10 nM.
The like results for `COc1ccc(F)c(-c2ccc(COc3cc(F)c4c(c3F)[C@]3(CC4)C[C@H]3C(=O)O)cc2[C@H]2CCCC2(C)C)c1` (single isomer, unassigned) [Example 33] were, in that order, 100 to 1000 nM and below 10 nM.
The like results for `COc1ccc(F)c(-c2ccc(COc3ccc4c(c3F)[C@@]3(CCC4)C[C@@H]3C(=O)O)cc2[C@H]2CCCC2(C)C)c1` (single isomer, unassigned) [Example 52] were, in that order, above 10000 nM and 1000 to 10000 nM.
The like results for `CCCOc1ccc(COc2ccc3c(c2)[C@]2(CCC3)C[C@H]2C(=O)O)cc1[C@@H]1CCCC1(C)C` (single isomer, unassigned) [Example 129] were, in that order, 1000 to 10000 nM and 100 to 1000 nM.
Consider `COc1cc(-c2ccc(COc3ccc4c(c3)C3(CCC4)CCC3C(=O)O)cc2[C@@H]2CCCC2(C)C)c(F)cn1` (single isomer, unassigned) [Example 156], for which the values for the 50% effective concentration (EC50) on human GPR40 [1] and at human GPR40 [2] were 100 to 1000 nM and 10 to 100 nM, respectively.
The like results for `COc1ccc(F)c(-c2c(F)cc(COc3ccc4c(c3)[C@]3(CC4)C[C@H]3C(=O)O)cc2[C@H]2CCCC2(C)C)c1` (single isomer, unassigned) [Example 16] were, in that order, 10 to 100 nM and below 10 nM.
On to `COc1cc(-c2ccc(COc3ccc4c(c3)[C@]3(CC4)CC[C@@H]3C(=O)O)cc2[C@@H]2CCCC2(C)C)c(F)cn1` (single isomer, unassigned) [Example 150], for which the figures for the 50% effective concentration (EC50) at human GPR40 [1] and on human GPR40 [2] were 100 to 1000 nM and below 10 nM, respectively.
The like results for `COc1cc(-c2ccc(COc3ccc4c(c3F)[C@]3(CCC4)C[C@H]3C(=O)O)cc2[C@@H](OC)C(C)(C)C)c(F)cn1` (single isomer, unassigned) [Example 53] were, in that order, 10 to 100 nM and below 10 nM.
For `COc1cc(-c2ccc(COc3cc4c(cn3)CC[C@]43C[C@H]3C(=O)O)cc2[C@@H](OC)C(C)(C)C)c(F)cn1` (single isomer, unassigned) [Example 58, (2′R,5R)-3-({4-(5-Fluoro-2-methoxypyridin-4-yl)-3-1[(1S)-1-methoxy-2,2-dimethylpropyl]phenyl}methoxy)-6,7-dihydrospiro[cyclopenta[c]pyridine-5,1′-cyclopropane]-2′-carboxylic acid or (2′R,5R)-3-({4-(5-fluoro-2-methoxypyridin-4-yl)-3-[(1R)-1-methoxy-2,2-dimethylpropyl]phenyl}methoxy)-6,7-dihydrospiro[cyclopenta[c]pyridine-5,1′-cyclopropane]-2′-carboxylic acid], the results for the EC50 at human GPR40 [1] and at human GPR40 [2] were 100 to 1000 nM and below 10 nM, respectively.
As for `COc1cc(-c2ccc(COc3ccc4c(c3)[C@]3(CCC4)C[C@H]3C(=O)O)cc2[C@H](OC)C(C)(C)C)c(Cl)cn1` (racemic) [Example 139], the values for the EC50 at human GPR40 [1] and on human GPR40 [2] were 100 to 1000 nM and below 10 nM, respectively.
The like results for `COc1ccc(F)c(-c2c(F)cc(COc3ccc4c(c3)[C@]3(CC4)C[C@H]3C(=O)O)cc2[C@@H]2CCCC2(C)C)c1` (single isomer, unassigned) [Example 18] were, in that order, 100 to 1000 nM and below 10 nM.
The like results for `COc1cc(-c2cc(F)c(COc3ccc4c(c3)[C@]3(CC4)C[C@H]3C(=O)O)cc2[C@@H]2CCCC2(C)C)c(F)cn1` (single isomer, unassigned) [Example 17] were, in that order, 10 to 100 nM and below 10 nM.
The like results for `COc1ccc(F)c(-c2ccc(COc3ccc4c(c3)[C@]3(CC4)C[C@H]3C(=O)O)cc2C2=CCCC2)c1` [Example 20] were, in that order, 100 to 1000 nM and 10 to 100 nM.
As to `COc1cc(-c2ccc(COc3ccc4c(c3F)[C@]3(CC4)C[C@H]3C(=O)O)cc2[C@@H](OC)C(C)(C)C)c(F)cn1` (single isomer, unassigned) [Example 30], the EC50 on human GPR40 [1] was 10 to 100 nM; at human GPR40 [2] it was below 10 nM.
The like results for `COc1cccc(-c2ccc(COc3ccc4c(c3)[C@]3(CCC4)C[C@H]3C(=O)O)cc2[C@H](OC)C(C)(C)C)c1F` (racemic) [Example 134] were, in that order, 100 to 1000 nM and 10 to 100 nM.
The matching figures for `CO[C@@H](c1cc(COc2ccc3c(c2)[C@]2(CCC3)C[C@H]2C(=O)O)ccc1-c1cccc(Cl)c1)C(C)(C)C` (racemic) [Example 137]: 100 to 1000 nM and 10 to 100 nM.
Consider `CCCCOc1cc(COc2ccc3c(c2)[C@]2(CC3)C[C@H]2C(=O)O)ccc1-c1cccc(OC)c1` [Example 25], for which the EC50 at human GPR40 [1] and on human GPR40 [2] was 100 to 1000 nM in each case.
Turning to `COc1ccc(F)c(-c2ccc(COc3ccc4c(c3)[C@]3(CC4)C[C@H]3C(=O)O)cc2[C@H]2CCCCC2(C)C)c1` (single isomer, unassigned) [Example 15], the EC50 at human GPR40 [1] is 10 to 100 nM; on human GPR40 [2] it was below 10 nM.
With `COc1cc(-c2ccc(COc3ccc4c(c3)[C@]3(CC4)C[C@H]3C(=O)O)cc2[C@@H]2CCCC2(C)C)c(F)cn1` [Example 19, (1R,2R)-6′-(3-((R)-2,2-Dimethylcyclopentyl)-4-(5-fluoro-2-methoxypyridin-4-yl)benzyloxy)-2′,3′-dihydrospiro[cyclopropane-1,1′-indene]-2-carboxylic acid], the EC50 is 10 to 100 nM on human GPR40 [1] and below 10 nM on human GPR40 [2].

What is called EC50 is the concentration that produces a half-maximal response.

(Values after patent US8748462B2, “Spirocyclic GPR40 modulators” (Amgen Inc., priority 2008, dated 2014).)
